Measured values published in ChEMBL document CHEMBL1649095, “A κ Opioid Pharmacophore Becomes a Spinally Selective κ-δ Agonist When Modified with a Basic Extender Arm” (2011).
Activity calls are given as the source filed them. The calls are words filed in the database; no cut-off is given here.

How the values were obtained:
Mus musculus [1] = test: Antinociceptive activity in icv dosed HSD:ICR(CD1) mouse by tail flick test; format: functional
Mus musculus [2] = test: Antinociceptive activity in intrathecally dosed HSD:ICR(CD1) mouse by tail flick test; format: functional
Mus musculus [3] = test: Potency index, ratio of antinociceptive ED50 in icv dosed HSD:ICR(CD1) mouse to antinociceptive ED50 in intrathecally dosed HSD:ICR(CD1) mouse; format: functional
[4] = molecular target: Opioid receptors; delta & kappa (Homo sapiens) (UniProt P41145+P41143); test: Agonist activity at kappa/delta opioid receptor expressed in HEK293 cells coexpressing chimeric Giiq protein assessed as stimulation of intracellular calcium; format: functional, cell-based
Chain of Opioid receptors; delta & kappa (Homo sapiens) (P41143 whole entry, looked up): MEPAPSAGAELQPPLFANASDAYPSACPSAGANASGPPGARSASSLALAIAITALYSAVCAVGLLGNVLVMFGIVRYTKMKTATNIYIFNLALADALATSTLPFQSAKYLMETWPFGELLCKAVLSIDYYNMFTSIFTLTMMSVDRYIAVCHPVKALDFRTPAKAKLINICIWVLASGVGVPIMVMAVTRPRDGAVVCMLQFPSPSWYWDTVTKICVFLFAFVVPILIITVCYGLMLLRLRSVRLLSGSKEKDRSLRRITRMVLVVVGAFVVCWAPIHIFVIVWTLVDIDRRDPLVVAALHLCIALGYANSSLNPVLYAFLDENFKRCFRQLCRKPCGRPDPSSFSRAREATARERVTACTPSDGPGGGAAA
Chain of Opioid receptors; delta & kappa (Homo sapiens) (P41145 whole entry, looked up): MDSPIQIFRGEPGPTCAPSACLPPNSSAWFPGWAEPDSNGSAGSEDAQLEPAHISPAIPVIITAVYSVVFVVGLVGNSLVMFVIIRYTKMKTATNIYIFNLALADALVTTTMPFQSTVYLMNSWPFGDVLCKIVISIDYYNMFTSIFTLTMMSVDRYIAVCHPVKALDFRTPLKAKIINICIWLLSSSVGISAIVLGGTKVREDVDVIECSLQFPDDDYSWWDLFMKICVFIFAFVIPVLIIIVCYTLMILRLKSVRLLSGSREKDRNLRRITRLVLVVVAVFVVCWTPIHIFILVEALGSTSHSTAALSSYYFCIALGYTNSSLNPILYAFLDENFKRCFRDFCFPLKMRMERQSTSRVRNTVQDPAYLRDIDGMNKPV

HEK293 [5] = test: Selectivity for kappa/delta opioid receptor expressed in HEK293 cells over kappa opioid receptor expressed in HEK293 cells by intracellular calcium release assay; format: cell-based
Mus musculus [6] = test: Ratio of antinociceptive ED80 in intrathecally dosed HSD:ICR(CD1) mouse coadministered with 2.5 nmol kappa opioid receptor antagonist norBNI to ED80 in intrathecally dosed HSD:ICR(CD1) mouse; format: functional
HEK293 [7] = test: Selectivity for kappa/delta opioid receptor expressed in HEK293 cells over kappa/mu opioid receptor expressed in HEK293 cells by intracellular calcium release assay; format: cell-based
HEK293 [8] = test: Selectivity for kappa/delta opioid receptor expressed in HEK293 cells over mu/delta opioid receptor expressed in HEK293 cells by intracellular calcium release assay; format: cell-based
Mus musculus [9] = test: Ratio of antinociceptive ED80 in intrathecally dosed HSD:ICR(CD1) mouse coadministered with 5 nmol delta opioid receptor antagonist NTI to ED80 in intrathecally dosed HSD:ICR(CD1) mouse; format: functional
HEK293 [10] = test: Selectivity for kappa/delta opioid receptor expressed in HEK293 cells over mu opioid receptor expressed in HEK293 cells by intracellular calcium release assay; format: cell-based

Compound | ED50 (Mus musculus [1]) [nmol] | ED50 (Mus musculus [2]) [nmol] | Ratio ED50 (Mus musculus [3]) | Activity [4] | Selectivity ratio (HEK293 [5]) | Ratio (Mus musculus [6]) | Selectivity ratio (HEK293 [7]) | Selectivity ratio (HEK293 [8]) | Ratio (Mus musculus [9]) | Selectivity ratio (HEK293 [10])
CNCCCCNC(=O)COCC(=O)Nc1cccc([C@@H](CN2CCCC2)N(C)C(=O)Cc2ccc(Cl)c(Cl)c2)c1 | 0.52 | 0.15 | 3.45 | – | – | – | – | – | – | –
CN(C(=O)Cc1ccc(Cl)c(Cl)c1)[C@H](CN1CCCC1)c1cccc(NC(=O)CNC(=O)CNC(=O)COCC(=O)NCCCNC=O)c1 | 0.47 | 0.02 | 23.44 | – | – | – | – | – | – | –
CNCCCNC(=O)COCC(=O)NCC(=O)NCC(=O)Nc1cccc([C@@H](CN2CCCC2)N(C)C(=O)Cc2ccc(Cl)c(Cl)c2)c1 | 0.58 | 0.0045 | 130.91 | Active | 66 | 28.5 | 66 | 66 | 9.97 | 66
CNCCNC(=O)COCC(=O)NCC(=O)NCC(=O)NCC(=O)Nc1cccc([C@@H](CN2CCCC2)N(C)C(=O)Cc2ccc(Cl)c(Cl)c2)c1 | 0.4 | 0.035 | 11.43 | – | – | – | – | – | – | –
CNCCCCNC(=O)COCC(=O)NCC(=O)Nc1cccc([C@@H](CN2CCCC2)N(C)C(=O)Cc2ccc(Cl)c(Cl)c2)c1 | 0.48 | 0.17 | 2.81 | – | – | – | – | – | – | –
